Laboratory results reported in patent publication US7531623B2, “Hydrochloride salts of a glycopeptide phosphonate derivative” (Theravance, Inc., priority 2003, dated 2009).

Assay: Stability of hydrochloride salts of telavancin on storage (HPLC area % of pseudoaglycone and aglycone impurities)
Assay type: physicochemical
Details: for Aglycone of Cmpd 1 (HPLC area %) Initial / Pseudoaglycone of Cmpd 1 (HPLC area %) Initial: before storage at 25° C.; for Aglycone of Cmpd 1 (HPLC area %) 2 Week / Pseudoaglycone of Cmpd 1 (HPLC area %) 2 Week: stored at 25° C. for 2 weeks, glass vials; for Aglycone of Cmpd 1 (HPLC area %) 2-Week Change / Pseudoaglycone of Cmpd 1 (HPLC area %) 2-Week Change: stored at 25° C., difference between 2-week and initial value
Protocol: In the examples described below, HPLC sample analysis was conducted using an Agilent (Palo Alto, Calif.) Series 1100 instrument with Zorbax RP-Bonus 4.6 mm×250 mm columns, supplied by Agilent, having a 5 micron pore size, packed on C14 silica. Detection was by UV absorbance at 254 nm. Mobile phase A was 2%-98%-0.1% ACN-H2O-TFA; and mobile phase B was 90%-10%-0.1% ACN-H2O-TFA. A flow rate of 1.0 mL/min was used with moble phase A containing a gradient of mobile phase B as follows: 10 to 43% B for 30 min;, 43% B for 5 min; 43 to 100% B for 5 min; 100 to 10% B for 1 min; and 10% B for 14 min.
The effect of chloride ion content on the stability of hydrochloride salts of telavancin stored at −20° C., 5° C. and 25° C. was determined.
Eight lots of telavancin hydrochloride salts prepared as described in Example 2 were placed in identical glass vials and stored at −20° C., 5° C. and 25° C. under otherwise identical conditions for two weeks. The changes in HPLC area % for the pseudoaglycone and aglycone impurities were used to evaluate relative stability.
For each sample, the pH of the mixture from which it was isolated, is indicated. The column entitled, “2 Week Change” is the difference in HPLC area % between the value observed after two weeks and the initial value and is graphically illustrated in FIGS. 1 and 2.

Which results are given for CCCCCCCCCCNCCN[C@@]1(C)C[C@H](O[C@H]2[C@H](Oc3c4cc5cc3Oc3ccc(cc3Cl)[C@@H](O)[C@@H](NC(=O)[C@@H](CC(C)C)NC)C(=O)N[C@@H](CC(N)=O)C(=O)N[C@H]5C(=O)N[C@H]3C(=O)N[C@H](C(=O)N[C@H](C(=O)O)c5cc(O)c(CNCP(=O)(O)O)c(O)c5-c5cc3ccc5O)[C@H](O)c3ccc(c(Cl)c3)O4)O[C@H](CO)[C@@H](O)[C@@H]2O)O[C@@H](C)[C@H]1O [2.42, telavancin]?
Aglycone of Cmpd 1 (HPLC area %) Initial: 0.03 HPLC area %; Pseudoaglycone of Cmpd 1 (HPLC area %) Initial: 0.32 HPLC area %; Aglycone of Cmpd 1 (HPLC area %) 2 Week: 0.05 HPLC area %; Pseudoaglycone of Cmpd 1 (HPLC area %) 2 Week: 0.40 HPLC area %; Aglycone of Cmpd 1 (HPLC area %) 2-Week Change: +0.02 HPLC area %; Pseudoaglycone of Cmpd 1 (HPLC area %) 2-Week Change: +0.08 HPLC area %

Which “Aglycone of Cmpd 1 (HPLC area %) Initial” value does the source give for CCCCCCCCCCNCCN[C@@]1(C)C[C@H](O[C@H]2[C@H](Oc3c4cc5cc3Oc3ccc(cc3Cl)[C@@H](O)[C@@H](NC(=O)[C@@H](CC(C)C)NC)C(=O)N[C@@H](CC(N)=O)C(=O)N[C@H]5C(=O)N[C@H]3C(=O)N[C@H](C(=O)N[C@H](C(=O)O)c5cc(O)c(CNCP(=O)(O)O)c(O)c5-c5cc3ccc5O)[C@H](O)c3ccc(c(Cl)c3)O4)O[C@H](CO)[C@@H](O)[C@@H]2O)O[C@@H](C)[C@H]1O [3.68, telavancin] here?
Its value is 0.06 HPLC area %.

And the “Pseudoaglycone of Cmpd 1 (HPLC area %) Initial” value?
Its value is 0.43 HPLC area %.

And the “Aglycone of Cmpd 1 (HPLC area %) 2 Week” value?
The value was 0.08 HPLC area %.

And the “Pseudoaglycone of Cmpd 1 (HPLC area %) 2 Week” value?
Its value is 0.51 HPLC area %.

What about the “Aglycone of Cmpd 1 (HPLC area %) 2-Week Change” value of the same compound?
Its value is “+0.02 HPLC area %”.

And the “Pseudoaglycone of Cmpd 1 (HPLC area %) 2-Week Change” value?
Its value is “+0.08 HPLC area %”.

With CCCCCCCCCCNCCN[C@@]1(C)C[C@H](O[C@H]2[C@H](Oc3c4cc5cc3Oc3ccc(cc3Cl)[C@@H](O)[C@@H](NC(=O)[C@@H](CC(C)C)NC)C(=O)N[C@@H](CC(N)=O)C(=O)N[C@H]5C(=O)N[C@H]3C(=O)N[C@H](C(=O)N[C@H](C(=O)O)c5cc(O)c(CNCP(=O)(O)O)c(O)c5-c5cc3ccc5O)[C@H](O)c3ccc(c(Cl)c3)O4)O[C@H](CO)[C@@H](O)[C@@H]2O)O[C@@H](C)[C@H]1O [3.94, telavancin] as the compound, how does the “Aglycone of Cmpd 1 (HPLC area %) Initial” value read?
Its value is 0.04 HPLC area %.

And the “Pseudoaglycone of Cmpd 1 (HPLC area %) Initial” value?
The value was 0.43 HPLC area %.

And the “Aglycone of Cmpd 1 (HPLC area %) 2 Week” value?
The value was 0.09 HPLC area %.

And the “Pseudoaglycone of Cmpd 1 (HPLC area %) 2 Week” value?
The value was 0.56 HPLC area %.

And the “Aglycone of Cmpd 1 (HPLC area %) 2-Week Change” value?
Its value is “+0.05 HPLC area %”.

What about the “Pseudoaglycone of Cmpd 1 (HPLC area %) 2-Week Change” value of the same compound?
The value was “+0.13 HPLC area %”.

With CCCCCCCCCCNCCN[C@@]1(C)C[C@H](O[C@H]2[C@H](Oc3c4cc5cc3Oc3ccc(cc3Cl)[C@@H](O)[C@@H](NC(=O)[C@@H](CC(C)C)NC)C(=O)N[C@@H](CC(N)=O)C(=O)N[C@H]5C(=O)N[C@H]3C(=O)N[C@H](C(=O)N[C@H](C(=O)O)c5cc(O)c(CNCP(=O)(O)O)c(O)c5-c5cc3ccc5O)[C@H](O)c3ccc(c(Cl)c3)O4)O[C@H](CO)[C@@H](O)[C@@H]2O)O[C@@H](C)[C@H]1O [4.41, telavancin] as the compound, how does the “Aglycone of Cmpd 1 (HPLC area %) Initial” value read?
The value was 0.06 HPLC area %.

What about the “Pseudoaglycone of Cmpd 1 (HPLC area %) Initial” value of the same compound?
The value was 0.42 HPLC area %.

What about the “Pseudoaglycone of Cmpd 1 (HPLC area %) 2 Week” value of the same compound?
Its value is 0.53 HPLC area %.

What about the “Pseudoaglycone of Cmpd 1 (HPLC area %) 2-Week Change” value of the same compound?
The value was “+0.11 HPLC area %”.

Which results are given for CCCCCCCCCCNCCN[C@@]1(C)C[C@H](O[C@H]2[C@H](Oc3c4cc5cc3Oc3ccc(cc3Cl)[C@@H](O)[C@@H](NC(=O)[C@@H](CC(C)C)NC)C(=O)N[C@@H](CC(N)=O)C(=O)N[C@H]5C(=O)N[C@H]3C(=O)N[C@H](C(=O)N[C@H](C(=O)O)c5cc(O)c(CNCP(=O)(O)O)c(O)c5-c5cc3ccc5O)[C@H](O)c3ccc(c(Cl)c3)O4)O[C@H](CO)[C@@H](O)[C@@H]2O)O[C@@H](C)[C@H]1O [4.59, telavancin]?
Aglycone of Cmpd 1 (HPLC area %) Initial: 0.10 HPLC area %; Pseudoaglycone of Cmpd 1 (HPLC area %) Initial: 0.52 HPLC area %; Aglycone of Cmpd 1 (HPLC area %) 2 Week: 0.17 HPLC area %; Pseudoaglycone of Cmpd 1 (HPLC area %) 2 Week: 0.72 HPLC area %; Aglycone of Cmpd 1 (HPLC area %) 2-Week Change: +0.07 HPLC area %; Pseudoaglycone of Cmpd 1 (HPLC area %) 2-Week Change: +0.20 HPLC area %

With CCCCCCCCCCNCCN[C@@]1(C)C[C@H](O[C@H]2[C@H](Oc3c4cc5cc3Oc3ccc(cc3Cl)[C@@H](O)[C@@H](NC(=O)[C@@H](CC(C)C)NC)C(=O)N[C@@H](CC(N)=O)C(=O)N[C@H]5C(=O)N[C@H]3C(=O)N[C@H](C(=O)N[C@H](C(=O)O)c5cc(O)c(CNCP(=O)(O)O)c(O)c5-c5cc3ccc5O)[C@H](O)c3ccc(c(Cl)c3)O4)O[C@H](CO)[C@@H](O)[C@@H]2O)O[C@@H](C)[C@H]1O [4.69, telavancin] as the compound, how does the “Aglycone of Cmpd 1 (HPLC area %) Initial” value read?
The value was 0.07 HPLC area %.

And the “Pseudoaglycone of Cmpd 1 (HPLC area %) Initial” value?
Its value is 0.45 HPLC area %.

What about the “Aglycone of Cmpd 1 (HPLC area %) 2 Week” value of the same compound?
The value was 0.13 HPLC area %.

What about the “Pseudoaglycone of Cmpd 1 (HPLC area %) 2 Week” value of the same compound?
The value was 0.62 HPLC area %.

And the “Aglycone of Cmpd 1 (HPLC area %) 2-Week Change” value?
Its value is “+0.06 HPLC area %”.

What about the “Pseudoaglycone of Cmpd 1 (HPLC area %) 2-Week Change” value of the same compound?
The value was “+0.17 HPLC area %”.

What does the source list for CCCCCCCCCCNCCN[C@@]1(C)C[C@H](O[C@H]2[C@H](Oc3c4cc5cc3Oc3ccc(cc3Cl)[C@@H](O)[C@@H](NC(=O)[C@@H](CC(C)C)NC)C(=O)N[C@@H](CC(N)=O)C(=O)N[C@H]5C(=O)N[C@H]3C(=O)N[C@H](C(=O)N[C@H](C(=O)O)c5cc(O)c(CNCP(=O)(O)O)c(O)c5-c5cc3ccc5O)[C@H](O)c3ccc(c(Cl)c3)O4)O[C@H](CO)[C@@H](O)[C@@H]2O)O[C@@H](C)[C@H]1O [5.60, telavancin]?
Aglycone of Cmpd 1 (HPLC area %) Initial: 0.15 HPLC area %; Pseudoaglycone of Cmpd 1 (HPLC area %) Initial: 0.48 HPLC area %; Aglycone of Cmpd 1 (HPLC area %) 2 Week: 0.41 HPLC area %; Pseudoaglycone of Cmpd 1 (HPLC area %) 2 Week: 1.11 HPLC area %

What does the source list for CCCCCCCCCCNCCN[C@@]1(C)C[C@H](O[C@H]2[C@H](Oc3c4cc5cc3Oc3ccc(cc3Cl)[C@@H](O)[C@@H](NC(=O)[C@@H](CC(C)C)NC)C(=O)N[C@@H](CC(N)=O)C(=O)N[C@H]5C(=O)N[C@H]3C(=O)N[C@H](C(=O)N[C@H](C(=O)O)c5cc(O)c(CNCP(=O)(O)O)c(O)c5-c5cc3ccc5O)[C@H](O)c3ccc(c(Cl)c3)O4)O[C@H](CO)[C@@H](O)[C@@H]2O)O[C@@H](C)[C@H]1O [5.74, telavancin]?
Aglycone of Cmpd 1 (HPLC area %) Initial: 0.43 HPLC area %; Pseudoaglycone of Cmpd 1 (HPLC area %) Initial: 0.89 HPLC area %; Aglycone of Cmpd 1 (HPLC area %) 2 Week: 1.08 HPLC area %; Pseudoaglycone of Cmpd 1 (HPLC area %) 2 Week: 1.94 HPLC area %
